Results taken from paper PMC10891214, “Effects of food and ethnicity on the pharmacokinetics of venadaparib, a next-generation PARP inhibitor, in healthy Korean, Caucasian, and Chinese male subjects” (Investigational New Drugs, 2023).

Columns and labels:
PARP5 = test system: PARP5; parameters: method as in PMID 36808277; conditions: cited from earlier work
[1] = Safety assessment (adverse events, vital signs, 12-lead ECGs) after a single administration of venadaparib 80 mg; conditions: for TEAEs: number of events / TEAEs: number of subjects: Koreans and Caucasians
Procedure: Safety was assessed in all subjects who received the study drug at least once throughout the study based on adverse event (AE) monitoring, physical examinations, vital signs, 12-lead electrocardiograms (ECGs), and clinical laboratory tests.
To support the evaluation of the relationship between concentration and QT/corrected QT (QTc) interval effects in the early stage of the clinical development of venadaparib, triplicate ECG tests were conducted in the middle of the study [22]. A triplicate ECG test was conducted in three Caucasian and five Chinese subjects after the protocol amendment. […] Fridericia’s corrected QT interval (QTcF) was collected, along with the existing ventricular rate, PR interval, QRS duration, QT interval, and QTcB. Triplicate ECGs were measured three times at intervals of 30 s to 2 min at each time point after at least 5 min of resting, and the median value of the three measurements was considered a representative value. QTcF and QTcB were calculated using the following population-derived correction equations: QTcF = QT/RR^0.33 and QTcB = QT/RR^0.5 [22].

[2] = Caucasian, fasted state (N = 12)

SMILES: O=C(c1cc(Cc2n[nH]c(=O)c3ccccc23)ccc1F)N1CC(CNC2CC2)C1 [venadaparib]
- IC50 compared with those of olaparib (PARP5): higher
- Changes in vital signs or 12-lead ECGs ([1]; 80 mg single dose): No clinically significant changes
- Serious AEs ([1]; 80 mg single dose, all groups): No serious AEs were observed
- Severity of TEAEs ([1]; 80 mg single dose, except contact dermatitis (moderate) in one subject, fed state): mild
- Effect of plasma concentrations on QTcF and QTcB values, including changes from the baseline ([1]; 80 mg single dose, triplicate ECG subset): did not prolong
- Safety and tolerability of a single dose ([1]; 80 mg, fasted and fed states, healthy subjects): safe and well-tolerated
- Blood bilirubin increased: number of events [1, 2]: 1
- Chalazion: number of events [1, 2]: 1
- Chalazion: number of subjects (percentage of subjects) [1, 2]: 1 (8.3)
- Eye disorders: number of events [1, 2]: 1
- Eye disorders: number of subjects (percentage of subjects) [1, 2]: 1 (8.3)
- Gastrointestinal disorders: number of events [1, 2]: 1
- Gastrointestinal disorders: number of subjects (percentage of subjects) [1, 2]: 1 (8.3)
- Hyperuricaemia: number of events [1, 2]: 1
- Investigations: number of events [1, 2]: 1
- Metabolism and nutrition disorders: number of events [1, 2]: 1
- Metabolism and nutrition disorders: number of subjects (percentage of subjects) [1, 2]: 1 (8.3)
- Nausea: number of events [1, 2]: 1
- Nausea: number of subjects (percentage of subjects) [1, 2]: 1 (8.3)
- Blood and lymphatic system disorders: number of events ([1]; Caucasian, fed state (N = 12)): 1
- Blood and lymphatic system disorders: number of subjects (percentage of subjects) ([1]; Caucasian, fed state (N = 12)): 1 (8.3)
- Blood bilirubin increased: number of events ([1]; Caucasian, fed state (N = 12)): 1
- Blood bilirubin increased: number of subjects (percentage of subjects) ([1]; Caucasian, fed state (N = 12)): 1 (8.3)
- Decreased appetite: number of events ([1]; Caucasian, fed state (N = 12)): 1
- Decreased appetite: number of subjects (percentage of subjects) ([1]; Caucasian, fed state (N = 12)): 1 (8.3)
- Dermatitis contact: number of events ([1]; Caucasian, fed state (N = 12)): 1
- Dermatitis contact: number of subjects (percentage of subjects) ([1]; Caucasian, fed state (N = 12)): 1 (8.3)
- Eosinophilia: number of events ([1]; Caucasian, fed state (N = 12)): 1
- Eosinophilia: number of subjects (percentage of subjects) ([1]; Caucasian, fed state (N = 12)): 1 (8.3)
- Epigastric discomfort: number of events ([1]; Caucasian, fed state (N = 12)): 1
- Epigastric discomfort: number of subjects (percentage of subjects) ([1]; Caucasian, fed state (N = 12)): 1 (8.3)
- Gastrointestinal disorders: number of events ([1]; Caucasian, fed state (N = 12)): 1
- General disorders and administration site conditions: number of events ([1]; Caucasian, fed state (N = 12)): 1
- General disorders and administration site conditions: number of subjects (percentage of subjects) ([1]; Caucasian, fed state (N = 12)): 1 (8.3)
- Headache: number of events ([1]; Caucasian, fed state (N = 12)): 1
- Headache: number of subjects (percentage of subjects) ([1]; Caucasian, fed state (N = 12)): 1 (8.3)
- Hyperuricaemia: number of events ([1]; Caucasian, fed state (N = 12)): 1
- Hyperuricaemia: number of subjects (percentage of subjects) ([1]; Caucasian, fed state (N = 12)): 1 (8.3)
- Investigations: number of events ([1]; Caucasian, fed state (N = 12)): 1
- Investigations: number of subjects (percentage of subjects) ([1]; Caucasian, fed state (N = 12)): 1 (8.3)
- Lethargy: number of events ([1]; Caucasian, fed state (N = 12)): 1
- Lethargy: number of subjects (percentage of subjects) ([1]; Caucasian, fed state (N = 12)): 1 (8.3)
- Metabolism and nutrition disorders: number of events ([1]; Caucasian, fed state (N = 12)): 2
- Metabolism and nutrition disorders: number of subjects (percentage of subjects) ([1]; Caucasian, fed state (N = 12)): 2 (16.7)
- Nervous system disorders: number of events ([1]; Caucasian, fed state (N = 12)): 2
- Nervous system disorders: number of subjects (percentage of subjects) ([1]; Caucasian, fed state (N = 12)): 2 (16.7)
- Skin and subcutaneous tissue disorders: number of events ([1]; Caucasian, fed state (N = 12)): 1
- Skin and subcutaneous tissue disorders: number of subjects (percentage of subjects) ([1]; Caucasian, fed state (N = 12)): 1 (8.3)
- Thirst: number of events ([1]; Caucasian, fed state (N = 12)): 1
- Thirst: number of subjects (percentage of subjects) ([1]; Caucasian, fed state (N = 12)): 1 (8.3)
- Total TEAEs: number of events ([1]; Caucasian, fed state (N = 12)): 9
- Total TEAEs: number of subjects (percentage of subjects) ([1]; Caucasian, fed state (N = 12)): 7 (58.3)
- Decreased appetite: number of events ([1]; Chinese, fasted state (N = 12)): 1
- Decreased appetite: number of subjects (percentage of subjects) ([1]; Chinese, fasted state (N = 12)): 1 (8.3)
- Dyspepsia: number of events ([1]; Chinese, fasted state (N = 12)): 1
- Dyspepsia: number of subjects (percentage of subjects) ([1]; Chinese, fasted state (N = 12)): 1 (8.3)
- Gastrointestinal disorders: number of events ([1]; Chinese, fasted state (N = 12)): 1
- Gastrointestinal disorders: number of subjects (percentage of subjects) ([1]; Chinese, fasted state (N = 12)): 1 (8.3)
- Hypertriglyceridaemia: number of events ([1]; Chinese, fasted state (N = 12)): 1
- Hypertriglyceridaemia: number of subjects (percentage of subjects) ([1]; Chinese, fasted state (N = 12)): 1 (8.3)
- Metabolism and nutrition disorders: number of events ([1]; Chinese, fasted state (N = 12)): 2
- Metabolism and nutrition disorders: number of subjects (percentage of subjects) ([1]; Chinese, fasted state (N = 12)): 2 (16.7)
- Abdominal pain: number of events ([1]; Korean, fasted state (N = 12)): 1
- Abdominal pain: number of subjects (percentage of subjects) ([1]; Korean, fasted state (N = 12)): 1 (8.3)
- Dyspepsia: number of events ([1]; Korean, fasted state (N = 12)): 1
- Dyspepsia: number of subjects (percentage of subjects) ([1]; Korean, fasted state (N = 12)): 1 (8.3)
- Gastrointestinal disorders: number of events ([1]; Korean, fasted state (N = 12)): 4
- Gastrointestinal disorders: number of subjects (percentage of subjects) ([1]; Korean, fasted state (N = 12)): 3 (25.0)
- Gingival pain: number of events ([1]; Korean, fasted state (N = 12)): 1
- Gingival pain: number of subjects (percentage of subjects) ([1]; Korean, fasted state (N = 12)): 1 (8.3)
- Nausea: number of events ([1]; Korean, fasted state (N = 12)): 1
- Nausea: number of subjects (percentage of subjects) ([1]; Korean, fasted state (N = 12)): 1 (8.3)
- Decreased appetite: number of events ([1]; Korean, fed state (N = 13)): 3
- Decreased appetite: number of subjects (percentage of subjects) ([1]; Korean, fed state (N = 13)): 3 (23.1)
- Dyspepsia: number of events ([1]; Korean, fed state (N = 13)): 2
- Dyspepsia: number of subjects (percentage of subjects) ([1]; Korean, fed state (N = 13)): 1 (7.7)
- Eye disorders: number of events ([1]; Korean, fed state (N = 13)): 3
- Eye disorders: number of subjects (percentage of subjects) ([1]; Korean, fed state (N = 13)): 1 (7.7)
- Eye pain: number of events ([1]; Korean, fed state (N = 13)): 1
- Eye pain: number of subjects (percentage of subjects) ([1]; Korean, fed state (N = 13)): 1 (7.7)
- Gastrointestinal disorders: number of events ([1]; Korean, fed state (N = 13)): 7
- Gastrointestinal disorders: number of subjects (percentage of subjects) ([1]; Korean, fed state (N = 13)): 5 (38.5)
- Hyperaemia: number of events ([1]; Korean, fed state (N = 13)): 1
- Hyperaemia: number of subjects (percentage of subjects) ([1]; Korean, fed state (N = 13)): 1 (7.7)
- Lacrimation increased: number of events ([1]; Korean, fed state (N = 13)): 1
- Lacrimation increased: number of subjects (percentage of subjects) ([1]; Korean, fed state (N = 13)): 1 (7.7)
- Metabolism and nutrition disorders: number of events ([1]; Korean, fed state (N = 13)): 3
- Metabolism and nutrition disorders: number of subjects (percentage of subjects) ([1]; Korean, fed state (N = 13)): 3 (23.1)
- Musculoskeletal and connective tissue disorders: number of events ([1]; Korean, fed state (N = 13)): 1
- Musculoskeletal and connective tissue disorders: number of subjects (percentage of subjects) ([1]; Korean, fed state (N = 13)): 1 (7.7)
- Nausea: number of events ([1]; Korean, fed state (N = 13)): 5
- Nausea: number of subjects (percentage of subjects) ([1]; Korean, fed state (N = 13)): 5 (38.5)
- Respiratory, thoracic, and mediastinal disorders: number of events ([1]; Korean, fed state (N = 13)): 1
- Respiratory, thoracic, and mediastinal disorders: number of subjects (percentage of subjects) ([1]; Korean, fed state (N = 13)): 1 (7.7)
- Rhabdomyolysis: number of events ([1]; Korean, fed state (N = 13)): 1
- Rhabdomyolysis: number of subjects (percentage of subjects) ([1]; Korean, fed state (N = 13)): 1 (7.7)
- Rhinorrhoea: number of events ([1]; Korean, fed state (N = 13)): 1
- Rhinorrhoea: number of subjects (percentage of subjects) ([1]; Korean, fed state (N = 13)): 1 (7.7)
- Total TEAEs: number of events ([1]; Korean, fed state (N = 13)): 16
- Total TEAEs: number of subjects (percentage of subjects) ([1]; Korean, fed state (N = 13)): 6 (46.2)
- Vascular disorders: number of events ([1]; Korean, fed state (N = 13)): 1
- Vascular disorders: number of subjects (percentage of subjects) ([1]; Korean, fed state (N = 13)): 1 (7.7)
- Vision blurred: number of events ([1]; Korean, fed state (N = 13)): 1
- Vision blurred: number of subjects (percentage of subjects) ([1]; Korean, fed state (N = 13)): 1 (7.7)
- TEAEs: number of events ([1]; fasted state, 80 mg): nine
- TEAEs: number of subjects ([1]; fasted state, 80 mg): seven
- TEAEs: number of events ([1]; fed state, 80 mg): 25
- TEAEs: number of subjects ([1]; fed state, 80 mg): 13
